Laboratory results: patent publication US20110177161A1, “PHARMACEUTICAL COMPOSITIONS OF [5(S)-(2'-HYDROXYETHOXY)-20(S)-CAMPTOTHECIN” (DR. REDDY'S LABORATORIES LIMITED, priority 2007, published 2011)

Tests used:
[1] = target: T1, Topoisomerase I (Homo sapiens, UniProt P11387); assay: Topoisomerase assay (TopoGEN Topo I Drug Screening Kit); format: biochemical
T1 construct: purchased Topogen, Inc., Port Orange, Fla
T1 sequence (P11387 1-765): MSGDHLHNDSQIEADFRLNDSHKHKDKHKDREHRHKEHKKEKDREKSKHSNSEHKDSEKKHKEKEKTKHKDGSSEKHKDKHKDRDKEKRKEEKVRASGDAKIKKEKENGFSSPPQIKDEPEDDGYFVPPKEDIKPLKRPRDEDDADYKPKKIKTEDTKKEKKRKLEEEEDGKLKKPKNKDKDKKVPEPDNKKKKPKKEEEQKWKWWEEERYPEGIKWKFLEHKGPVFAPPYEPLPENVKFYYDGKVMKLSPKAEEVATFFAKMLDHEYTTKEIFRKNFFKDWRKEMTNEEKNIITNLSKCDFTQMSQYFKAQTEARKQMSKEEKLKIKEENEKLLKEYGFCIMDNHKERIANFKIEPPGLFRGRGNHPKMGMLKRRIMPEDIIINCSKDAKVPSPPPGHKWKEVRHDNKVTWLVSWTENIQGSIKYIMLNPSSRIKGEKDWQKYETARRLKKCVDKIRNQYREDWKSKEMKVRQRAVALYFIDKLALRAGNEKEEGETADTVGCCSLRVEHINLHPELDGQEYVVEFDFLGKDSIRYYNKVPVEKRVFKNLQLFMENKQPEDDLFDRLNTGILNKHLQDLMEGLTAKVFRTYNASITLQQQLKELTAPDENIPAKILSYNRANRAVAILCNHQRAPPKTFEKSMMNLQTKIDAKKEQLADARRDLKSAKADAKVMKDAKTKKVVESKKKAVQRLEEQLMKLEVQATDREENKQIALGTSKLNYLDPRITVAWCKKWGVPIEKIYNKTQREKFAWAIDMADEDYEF
Description: Topoisomerase I introduces transient nicks in DNA at specific sites. Detection of these transient DNA nicks requires trapping the enzyme on DNA in a nicked intermediate complex using protein denaturants. The resulting covalent DNA/top I complexes contain nicked open circular DNA which can be detected by agarose gel electrophoresis (with ethidium bromide). Trapping nicked intermediates is relatively inefficient, however, inhibitors, such as the natural product camptothecin, stabilize the intermediate and lead to an increase in the nicked DNA product. This forms the basis for a mechanistic drug screen designed to allow detection of agents that affect topoisomerase I by stabilizing the cleaved intermediate complex.
The TopoGEN Topo I Drug Screening Kit (Topogen, Inc., Port Orange, Fla.) is designed to allow the investigator to quickly identify novel inhibitors of topoisomerase I. The kit allows the detection of novel compounds that either stabilize the nicked intermediate or otherwise inhibit catalytic activity of topoisomerase I.
The above reaction mixture is incubated at 37 degree C. for 30 minutes. The reaction is terminated by adding 2 μl of 10% SDS and the mixture is vortexed rapidly (SDS should be added while at 37 degree C. as cooling the tubes might reseal the nicked DNA). 10× Dye, about 2.5 μl per tube, is added and equal volumes of a mixture of chloroform and isoamyl alcohol (24:1) is added and centrifuged at 13000 rpm for 10 minutes. Samples are loaded on a 1% agarose gel and electrophoresed for 1 hour at 80 volts. The gel was viewed on UV transilluminator and the densitometric estimation of the bands was calculated.
The density of the DNA bands of both super coiled and relaxed forms of DNA was measured using the densitometer. The band intensity of treated (with single concentration of the test drug) and without the drug (i.e., the Control) were recorded. The percentage of relaxed form DNA compared to the supercoiled DNA was calculated for all the lanes including treated and control. • % inhibition of Topoisomerase activity was calculated as: […]

[2] = test system: NCl-H460 (human small cell lung carcinoma) xenografts; assay: NCl-H460 xenograft study in nude mice; conditions: oral, (d×5)2 schedule
Experimental: To perform the NCl-H460 xenograft study, NCl-H460 tumor pieces measuring ~60 mm^3 were implanted in the space of dorsal lateral flanks of female athymic nude mice to initiate tumor growth. When the tumors were grown to ~150-1000 mm^3, animals were randomized into groups of five prior to initiating therapy. […] Each gram of placebo was formulated to contain 895.2 mg hydroxylpropyl beta cyclodextran, 89.52 mg dextrose anhydrous and 14.9 mg sodium carbonate. Each formulation was dissolved in 2 ml sterile water and administered through oral route in a (d×5)2 schedule. Tumor diameters were measured twice a week using a vernier caliper.
Tumor volumes were calculated assuming tumors to be ellipsoid using the formula: V=(D×d^2)/2, where V (mm^3) is tumor volume, D is longest diameter in mm and d is shortest diameter in mm. Change in tumor volumes (Δ) for each treated (T) and control (C) group were calculated by subtracting the mean tumor volume on the first day of treatment (starting day) from the mean tumor volume on the specified observation day. These values were used to calculate a percentage growth (% T/C) using the formulas:
Percentage tumor growth inhibition (% TGI) was then calculated using the formula: % TGI=100−% TC.
All of the mice bearing subcutaneous tumors measuring approximately 150-800 mm^3 were treated with test compound through oral gavage using a (d×5)2 schedule. Tumor diameters were measured twice in a week using vernier calipers and tumor volumes were calculated assuming tumors to be ellipsoid using the formula V=(D×d^2)/2 where V (mm^3) is tumor volume, D is longest diameter in mm., and d is shortest diameter in mm. Changes in tumor Volumes (Δ volumes) for each treated (T) and control (C) group are calculated, by subtracting the mean tumor volume on the first day of treatment (starting day) from the mean tumor volume of on the specified observation day. These values are used to calculate a percentage growth (% T/C) using the formula: […]
Tumor regressions are defined as partial if the tumor volume decreases to 50% or less of the tumor volume at the start of the treatment without dropping below to 63 mm^3. Complete regression is defined if the tumor volume drops to below measurable limits (<63 mm^3).
The percentage body weight change in comparison to starting day body weight of each animal was calculated using the formula: Percentage Body weight change=[(Body weight on specified observation day-Body weight on starting day)/Body weight on starting day]×100.
The other parameter observed was mortality.

SMILES	IC50 [1]	% Tumor Growth Inhibition ([2]; Dose 2 mg/kg)	Mortality ([2]; Dose 2 mg/kg)	% Tumor Growth Inhibition ([2]; Dose 4 mg/kg)	Mortality ([2]; Dose 4 mg/kg)	fold more active than 5(R)-(2′-hydroxyethoxy)-20(S)-camptothecin in inhibiting topoisomerase I [1]	times more active than 5(RS)-(2′-hydroxyethoxy)-20(S)-camptothecin in inhibiting topoisomerase I [1]
CC[C@@]1(O)C(=O)OCc2c1cc1n(c2=O)C(OCCO)c2cc3ccccc3nc2-1 (mixture of isomers) [5(RS)-(2′-hydroxyethoxy)-20(S)-camptothecin, reference compound]	12.5 µM	60%	0/5	64%	0/5	–	–
CC[C@@]1(O)C(=O)OCc2c1cc1n(c2=O)[C@@H](OCCO)c2cc3ccccc3nc2-1 [DRF-(5S,20S)-1042, 5(S)-(2′-hydroxyethoxy)-20(S)-camptothecin]	–	68%	0/5	76%	0/5	about 21 fold	about 12 times
